The record followed here is US20090221095A1, “Colorimetric Screening of DNA Binding/Intercalating Agents with Gold Nanoparticle Probes” (NORTHWESTERN UNIVERSITY, priority 2005, published 2009).

Common to all, as to type: binding
Experiment [1] concerns triplex DNA (DNA-1, DNA-2, DNA-3). The experiment can be described thus: UV melting (260 nm) of unmodified triplex DNA-1, DNA-2, DNA-3 (no nanoparticles). The conditions noted are these: duplex melting transition; solution-phase unmodified DNA, 1 μM each strand, 6 μM binder, 0.5 M NaCl 10 mM PBS. The method, then:
To compare the results from the previous examples with more traditional screening techniques, all eight intercalators were screened, plus a control, by monitoring UV absorbance melting curves (260 nm) of unmodified DNA-1, DNA-2, and DNA-3 (1 μM each), with each intercalator (10 μM), (DNA-1; 3′ TTCTTCTTTTTT CT-5′. DNA-2: 5′-TTCTTCTTTTTTCT-3′, DNA-3: 5′-AAGAAGAAAAAA-3′). (FIG. 2B). The melting experiment performed in the presence of BePl has two melting transitions. The first Tm at 34.8° C. is associated with the denaturation of the triplex structure and the second Tm at 61.4° C. is representative of the corresponding duplex.
(§1) To determine the Tm of the duplex DNA in the presence of DNA binders, 2 μM duplex DNA and 5 μM DNA binder were combined in 0.3 M NaCl 10 mM PBS. To determine the Tm of the triplex DNA in the presence of DNA binders, 1 μM of each strand and 6 μM of each DNA binder were combined in 0.5 M NaCl 10 mM PBS. UV-vis melting curves were measured on a CARRY 500 spectrophotometer equipped with a circulating bath. The melting process was monitored by measuring the change in extinction at 260 nm. The solutions were stirred continuously with a magnetic stir bar as the solution temperature was increased at a rate of 0.5° C./min. The first derivative generated from the melting curves was used to determine the Tm.
A melting transition associated with the triple helix was found only for experiments performed in the presence of BePI (34.8° C.) and CORA (17.1° C.) where BePI is determined to be the stronger binder. This is in agreement with the results determined by the chip-based scanometric method described above.

In experiment [2] the test system is duplex DNA between NP-1 and NP-2. The experiment is described as follows: Melting temperature of NP-1/NP-2 gold nanoparticle duplex nanoassemblies (520 nm). To be noted: NP-1 and NP-2 1.5 nM each, intercalator 5 μM, 10 mM PBS pH 7.0, NaCl 0.1 M, control 26.4. The source says: This method also utilizes the aggregation-induced, red-to-blue color change associated with 13 nm Au nanoparticles. Gold nanoparticles are functionalized with one of two complementary thiol-modified oligonucleotide strands and are denoted NP-1 and NP-2. When NP-1 and NP-2 are combined, they form aggregates through a reversible DNA hybridization process. This process results in a red-to-blue color change due to a red-shifting and dampening of the nanoparticle plasmon resonance. Increasing the temperature above the melting temperature of the DNA reverses the process, and the particles dissociate with a concomitant blue-to-red color change. […] This increased stability is reflected by an increase in melting temperature. Note that the shape and breadth of the transition is almost independent of the intercalator (FIG. 4). Therefore, by monitoring the blue-to-red color transition of hybridized oligonucleotide-modified Au nanoparticles in the presence of different compounds, the relative strength of intercalator binding can be determined with the naked-eye.
(§2) The assay is initiated by mixing NP-1 and NP-2 (1.5 nM each) in a 1:1 molar ratio in 10 mM PBS buffer (pH=7.0, NaCl 0.1 M. The melting temperatures of the nanoassemblies (NP-1 and NP-2) were then determined in the presence of 4′,6-diamidino-2-phenylindole (DAPI), ellipticine (EIPT), Amsacrine (AMSA), daunorubicin (DNR), anthraquinone-2-carboxylic acid (AQ2A), ethidium bromide (EB), and 9-aminoacridine (9-AA) (5 μM), respectively. UV melting profiles were measured by monitoring the absorbance at 520 nm at a scan rate of 0.5° C. min^−1. Melting temperatures were determined by taking the maxima of the first derivative of the melting curves. Control experiments were run by determining the melting temperatures of unmodified duplex DNA (DNA-1: 5′-TAACAATAA-3′, DNA-2: 5′-TTATTGTTA-3′) in the presence of all seven intercalators shown in Table 1.

Experiment [3] has as its system unmodified duplex DNA (DNA-1: 5′-TAACAATAA-3′, DNA-2: 5′-TTATTGTTA-3′). The experiment can be described thus: Melting temperature of solution-phase unmodified duplex DNA (no nanoparticles). To be noted: for Tm, melting temperature of solution-phase unmodified DNA: 2 uM duplex DNA, 5 uM DNA binder, control (no DNA binder) 19.1; for relative trend in binding strength: from control experiments, Tm of solution-phase unmodified DNA (Table 2). The method, then:
as §2, §1

Experiment [4] relates to triplex DNA on chip surface. The experiment is described as follows: Chip-based scanometric detection of triplex DNA binders (silver enhancement). To be noted: varying salt concentrations (0.1 to 0.3 M NaCl), binder 5 μM, DNA-3 150 nM. As for the experimental part:
For scanometric detection of duplex or triplex DNA binding molecules, Au nanoparticles (1 nM) and DNA binding molecules (5 μM) in 10 mM PBS buffer of varying NaCl concentrations were added to the microarray slide under hybridization wells (Nanosphere, Inc.). For detection of triplex binders, 150 nM DNA-3 was added. DNA hybridization proceeded for 30 min (for duplex DNA binders) or 1 h (for triplex DNA binders) in a humidity chamber. After hybridization, the slides were washed three times with 0.5 M NaNO3 containing 0.02% Tween 20. The arrays were dried using a benchtop spinner. Silver enhancement solution (Nanosphere, Inc.) was added for Au-NP signal amplification (1 mL total volume/array, 1.5-min development time for duplex DNA binding molecules and 3 min for triplex binding molecules). The reaction was terminated by washing the slides with NANOpure® water and spin-drying. Light-scattering images from the silver-enhanced chips were recorded using the high-resolution Verigene ID system (Nanosphere, Inc.).
Capture strands of synthetic oligonucleotides are patterned on a glass chip using a microarrayer. The DNA chip is then exposed to a solution containing three components: 1) complementary DNA (no nanoparticles), 2) DNA functionalized Au nanoparticles (DNA is non-complementary to the arrayed DNA) and 3) DNA binders, Scheme 4. The complementary solution-phase DNA, called DNA-3 in Scheme 2, hybridizes to the DNA on the chip surface and forms a duplex. The Au nanoparticle-bound DNA has the correct sequence to form a triplex with the surface bound duplex through sequence-specific Hoogsteen, or reverse Hoogsteen, base pairing. The triplex structure is relatively unstable at room temperature and will only form in the presence of triplex DNA binding molecules. The presence of the triplex DNA binding molecules increase the stability of the triplex, immobilizing the Au nanoparticles on the chip surface. The chip was then exposed to silver enhancement solution for further signal enhancement and then imaged using a Verigene ID scanner.
The assay was performed in the presence of two triplex binders, coralyn (CORA) and benzo[e]pyridoindole (BePI), seven duplex DNA binders, 4′,6-diamidino-2-phenylindole (DAPI), ellipticine (EIPT), amsacrine (AMSA), daunorubicin (DNR), anthraquinone-2-carboxylic acid (AQ2A), ethidium bromide (EB), and 9-aminoacridine (9-AA))., and one control (no DNA-3). Similar to the DNA duplex, the formation of the DNA triplex is a reversible process which is affected by both temperature and salt concentration. However, compared to the duplex, the stability of the triplex is much more sensitive to salt concentration. Therefore, to determine the relative binding strength of the triplex DNA binders, the assay was performed at varying salt concentrations, FIG. 7. At 0.3 M NaCl, both the strong (BePI) and weaker (CORA) triplex binders show signal.

On to `Nc1c2ccccc2nc2ccccc12` [9-AA, 9-aminoacridine], for which the “Tm 2-1” value in experiment [1] stood at 59.1 °C. Besides, the Tm^a, melting temperature of nanoassemblies in experiment [2] came to 30.9 °C. Moreover, the “Tm, melting temperature of solution-phase unmodified DNA” value (from here on “Tm, melting temperature”) in experiment [3] was 19.3 °C. Moreover, the scanometric signal entry in experiment [4] was “No signal”.

`O=C(O)c1ccc2c(c1)C(=O)c1ccccc1C2=O` [AQ2A, anthraquinone-2-carboxylic acid]: in experiment [1], the “Tm 2-1” value worked out at 59.1 °C. Further, the Tm^a, melting temperature of nanoassemblies in experiment [2] turned out to be 28.5 °C. Further, the “Tm, melting temperature” value in experiment [3] was found to be 19.4 °C. Further, the scanometric signal entry in experiment [4] was “No signal”.

Regarding `N=C(N)c1ccc(-c2cc3ccc(C(=N)N)cc3[nH]2)cc1` [DAPI, 4′,6-diamidino-2-phenylindole], the “Tm 2-1” value in experiment [1] was 66.3 °C. For the same molecule, in experiment [2], the Tm^a, melting temperature of nanoassemblies came to 50.4 °C. For the same molecule, in experiment [3], the “Tm, melting temperature” value was 27.8 °C and the “relative trend in binding strength” value is given as “DAPI>DNR>EB>other intercalators”. Also, the scanometric signal result in experiment [4] is “No signal”.

`COc1cccc2c1C(=O)c1c(O)c3c(c(O)c1C2=O)C[C@@](O)(C(C)=O)C[C@@H]3O[C@H]1C[C@H](N)[C@H](O)[C@H](C)O1` [DNR, daunorubicin]: the “Tm 2-1” value in experiment [1] was 61.7 °C. Also, the Tm^a, melting temperature of nanoassemblies in experiment [2] is 38.4 °C. In experiment [3], the “Tm, melting temperature” value was 25.4 °C and the “relative trend in binding strength” value was “DAPI>DNR>EB>other intercalators”. Also, in experiment [4], the scanometric signal result is given as “No signal”.

As to `Cc1c2ccncc2c(C)c2c1[nH]c1ccccc12` [EIPT, ellipticine], in experiment [1], the “Tm 2-1” value worked out at 59.3 °C. In addition, the Tm^a, melting temperature of nanoassemblies in experiment [2] came to 29.2 °C. The “Tm, melting temperature” value in experiment [3] stood at 20.5 °C. The scanometric signal entry in experiment [4] was “No signal”.
